Results reported in US20090192097A1, “Synergistic Herbal Composition from Bacopa Species for Management of Neurodegenerative Disorders and a Process of Preparation Thereof” (priority 2006, published 2009).

Assays:
[1] = test system: albino Swiss mice; assay: Passive avoidance test in mice; assay type: in vivo, mouse; details: compared to the vehicle control; BacoMind 40, 60 and 80 mg/kg p.o. 7 days; piracetam 100 mg/kg i.p.; scopolamine 0.3 mg/kg i.p.
Description: (§1) Forty two albino Swiss mice (20-22 g) of either sex obtained from National Toxicology Centre, Pune were used for the study. The animals were acclimatized for a week and maintained under standard laboratory conditions, given free access to feed (Source: Laboratory prepared) and water, ad libitum.
Six albino Swiss mice of either sex were randomly allotted to each group. Group I served as the vehicle control. Group II, III and IV received BacoMind™ orally at the doses of 40, 60 and 80 mg/kg for 7 days. Piracetam was administered to group V (100 mg/kg, i.p, single dose, on 7th day 20 min before first trial) and served as the reference standard control. Group VI was administered with scopolamine (0.3 mg/kg, i.p, single dose, on 7th day 20 min before first trial) and served as the amnesia control. Group VII was administered both with BacoMind™ (60 mg/kg, p.o, for 7 days) and scopolamine (0.3 mg/kg, i.p, single dose, on 7th day 30 min after BacoMind™ treatment). Mice were placed individually on the electric grid and allowed to explore for one minute. A stimulus of 20 V with AC current of 5 mA was given and latency to reach SFZ was recorded for three consecutive times and considered as basal reading. After 1 h of the first trial, each animal was placed on the electric grid again and the latency to reach SFZ and the mistakes (descents) the animal made in 15 min were recorded and considered as parameters for acquisition and retention respectively.

[2] = test system: albino Swiss mice; assay: Elevated plus maze (EPM) test in mice; assay type: in vivo, mouse; details: scopolamine 0.3 mg/kg i.p. single dose, compared to the vehicle control
Description: as §1
Six albino Swiss mice of either sex were randomly allotted to each group. Group I served as the vehicle control. […] Piracetam was administered to group V (100 mg/kg, i.p, single dose on 7th day, 30 min before recording transfer latency) and served as the reference standard control. Group VI was administered with scopolamine (0.3 mg/kg, i.p, single dose on 7th day, 30 min before recording transfer latency) and served as the amnesia control group. […] The mice were placed individually at the end of open arm of the EPM facing away from the center. The time taken by the mouse to move into the enclosed arm was noted as transfer latency (TL). The mice were treated with the test substance/drugs as shown in the study design. […] After determination of the TL, mice were allowed to explore the maze for 2 min and then transferred to their home cages. The TL was again measured after 24 h i.e on […]. The TL was expressed as inflexion ratio.

Compound | latency to reach SFZ [1] | number of mistakes in 15 min [1] | inflexion ratio [2]
NC(=O)CN1CCCC1=O [piracetam, Piracetam] | significantly decreased | significantly decreased | 
CN1[C@@H]2C[C@@H](OC(=O)[C@H](CO)c3ccccc3)C[C@H]1[C@@H]1O[C@@H]12 [scopolamine] | significant increase |  | significant decrease
